Measurements taken from PubChem BioAssay (NCI).
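A five-concentration, 48-hour dose response in 96-well plates underlies each endpoint, interpolated linearly between surrounding concentrations. TGI is the concentration that stops growth completely.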

Experiments:
Test in all cases: NCI-60 cell line screen, 48 h
SF-295 CNS = system: SF-295 CNS
LXFL 529 NSCLC = system: LXFL 529 NSCLC
SK-OV-3 ovarian = system: SK-OV-3 ovarian
UO-31 renal = system: UO-31 renal
MALME-3M melanoma = system: MALME-3M melanoma
RXF 393 renal = system: RXF 393 renal
SF-268 CNS = system: SF-268 CNS
TK-10 renal = system: TK-10 renal
XF 498 CNS = system: XF 498 CNS
SF-539 CNS = system: SF-539 CNS
SNB-78 CNS = system: SNB-78 CNS
KM12 colon = system: KM12 colon
SW-620 colon = system: SW-620 colon
SN12C renal = system: SN12C renal
SK-MEL-2 melanoma = system: SK-MEL-2 melanoma
DMS 114 small cell lung = system: DMS 114 small cell lung
HCC-2998 colon = system: HCC-2998 colon
LOX IMVI melanoma = system: LOX IMVI melanoma
CAKI-1 renal = system: CAKI-1 renal
HCT-15 colon = system: HCT-15 colon
SR leukemia = system: SR leukemia
SK-MEL-5 melanoma = system: SK-MEL-5 melanoma
DLD-1 colon = system: DLD-1 colon
NCI-H522 lung = system: NCI-H522 lung
SNB-19 CNS = system: SNB-19 CNS
SK-MEL-28 melanoma = system: SK-MEL-28 melanoma
HCT-116 colon = system: HCT-116 colon
OVCAR-8 ovarian = system: OVCAR-8 ovarian
ACHN renal = system: ACHN renal
OVCAR-3 ovarian = system: OVCAR-3 ovarian
HT29 colon = system: HT29 colon
COLO 205 colon = system: COLO 205 colon
IGROV1 ovarian = system: IGROV1 ovarian
U251 CNS = system: U251 CNS
CCRF-CEM leukemia = system: CCRF-CEM leukemia
EKVX NSCLC = system: EKVX NSCLC
DMS 273 small cell lung = system: DMS 273 small cell lung
NCI-H23 lung = system: NCI-H23 lung
NCI-H226 lung = system: NCI-H226 lung
HOP-18 NSCLC = system: HOP-18 NSCLC
SNB-75 CNS = system: SNB-75 CNS
M19-MEL melanoma = system: M19-MEL melanoma
A498 renal = system: A498 renal
786-0 renal = system: 786-0 renal
HL-60(TB) leukemia = system: HL-60(TB) leukemia
UACC-62 melanoma = system: UACC-62 melanoma
OVCAR-4 ovarian = system: OVCAR-4 ovarian
HOP-92 NSCLC = system: HOP-92 NSCLC
A549 NSCLC = system: A549 NSCLC
K-562 leukemia = system: K-562 leukemia
KM20L2 colon = system: KM20L2 colon
M14 melanoma = system: M14 melanoma
MOLT-4 leukemia = system: MOLT-4 leukemia
HOP-62 NSCLC = system: HOP-62 NSCLC
RPMI-8226 leukemia = system: RPMI-8226 leukemia
OVCAR-5 ovarian = system: OVCAR-5 ovarian
UACC-257 melanoma = system: UACC-257 melanoma
NCI-H460 lung = system: NCI-H460 lung

O=C1C(Cl)=C(Cl)C(=O)N1c1ccccc1Cl
TGI (SF-295 CNS): > 100 µM
TGI (LXFL 529 NSCLC): > 86.3 µM
TGI (SK-OV-3 ovarian): > 100 µM
TGI (UO-31 renal): > 100 µM
TGI (MALME-3M melanoma): > 88 µM
TGI (RXF 393 renal): > 100 µM
TGI (SF-268 CNS): > 100 µM
TGI (TK-10 renal): > 100 µM
TGI (XF 498 CNS): > 100 µM
TGI (SF-539 CNS): > 100 µM
TGI (SNB-78 CNS): > 100 µM
TGI (KM12 colon): > 100 µM
TGI (SW-620 colon): > 95 µM
TGI (SN12C renal): > 100 µM
TGI (SK-MEL-2 melanoma): > 100 µM
TGI (DMS 114 small cell lung): > 100 µM
TGI (HCC-2998 colon): > 100 µM
TGI (LOX IMVI melanoma): > 100 µM
TGI (CAKI-1 renal): > 60.9 µM
TGI (HCT-15 colon): > 88.4 µM
TGI (SR leukemia): 69.7 µM
TGI (SK-MEL-5 melanoma): > 100 µM
TGI (DLD-1 colon): > 94.7 µM
TGI (NCI-H522 lung): 22.7 µM
TGI (SNB-19 CNS): > 100 µM
TGI (SK-MEL-28 melanoma): > 100 µM
TGI (HCT-116 colon): > 100 µM
TGI (OVCAR-8 ovarian): > 100 µM
TGI (ACHN renal): > 100 µM
TGI (OVCAR-3 ovarian): > 100 µM
TGI (HT29 colon): > 100 µM
TGI (COLO 205 colon): > 100 µM
TGI (IGROV1 ovarian): > 100 µM
TGI (U251 CNS): > 100 µM
TGI (CCRF-CEM leukemia): 19.3 µM
TGI (EKVX NSCLC): > 100 µM
TGI (DMS 273 small cell lung): > 100 µM
TGI (NCI-H23 lung): > 100 µM
TGI (NCI-H226 lung): > 100 µM
TGI (HOP-18 NSCLC): > 100 µM
TGI (SNB-75 CNS): > 100 µM
TGI (M19-MEL melanoma): > 100 µM
TGI (A498 renal): > 100 µM
TGI (786-0 renal): > 100 µM
TGI (HL-60(TB) leukemia): 21.7 µM
TGI (UACC-62 melanoma): > 100 µM
TGI (OVCAR-4 ovarian): > 100 µM
TGI (HOP-92 NSCLC): > 79.4 µM
TGI (A549 NSCLC): > 100 µM
TGI (K-562 leukemia): > 81 µM
TGI (KM20L2 colon): > 100 µM
TGI (M14 melanoma): > 100 µM
TGI (MOLT-4 leukemia): > 78.5 µM
TGI (HOP-62 NSCLC): > 100 µM
TGI (RPMI-8226 leukemia): > 88.1 µM
TGI (OVCAR-5 ovarian): > 100 µM
TGI (UACC-257 melanoma): > 100 µM
TGI (NCI-H460 lung): > 100 µM
